# Legend:
# [1] = biological target: T1, IDO1-PROTAC-CRBN ternary complex (Homo sapiens, UniProt P14902+Q96SW2); assay: BLI IDO1-PROTAC-CRBN ternary complex; type: binding; details: IDO1 on NiNTA sensors, PROTAC pre-incubated with 25 molar excess of CRBN, 1:1 kinetic model
# T1 construct: purchased Active Motif (IDO1); Sino Biological (CRBN) 81031 (IDO1); none given for CRBN
# Method: (§1) FIGS. 13A-13C show mechanistic understanding of IDO1-PROTAC-induced IDO1 degradation. […] Data sets fitted globally with a 1:1 kinetic model. FIG. 13B is BLI sensorgrams showing association and dissociation of compound NU227164 to CRBN protein pre-immobilized on AR2G sensors. Binding experiments and data fitting were performed as described above. FIG. 13C is BLI sensorgrams for the IDO1-NU227164-CRBN ternary complex. IDO1 protein was loaded onto NiNTA biosensors. IDO1 was pre-immobilized on NI NTA sensors, and binding of compound NU227164 preincubated with CRBN was monitored in the association step; next, the sensors were moved into reaction buffer in order monitor dissociation. As indicated in the legend, each trace corresponds to a different concentration of NU227164. Data sets fitted globally with a 1:1 kinetic model. No binding was detected between CRBN and IDO1 in the absence of NU227164 (trace “CRBN only”).
# (§2) FIGS. 14A-14C illustrate mechanistic understanding of DO1-PROTAC-induced IDO1 degradation. […] The equilibrium dissociation constant (Kd) was obtained by fitting the steady state data (Req as a function of compound concentration) with a 1:1 binding model. FIG. 14B is BLI sensorgrams showing association and dissociation of compound NU227168 to CRBN protein pre-immobilized on AR2G sensors. Binding experiments and data fitting were performed as described above. FIG. 14C is BLI sensorgrams for the IDO1-NU227168-CRBN ternary complex. IDO1 protein was loaded onto NiNTA biosensors. IDO1 was pre-immobilized on NI NTA sensors, and binding of compound NU227168 preincubated with CRBN was monitored in the association step; next, the sensors were moved into reaction buffer in order monitor dissociation. As indicated in the legend, each trace corresponds to a different concentration of NU227168. Data sets fitted globally with a 1:1 kinetic model. No binding was detected between CRBN and IDO1 in the absence of NU227168 (trace “CRBN only”).
# (§3) FIGS. 15A-15C show mechanistic understanding of IDO1-PROTAC-induced IDO1 degradation. […] The equilibrium dissociation constant (Kd) was obtained by fitting the steady state data (Req as a function of compound concentration) with a 1:1 binding model. FIG. 15B is BLI sensorgrams showing association and dissociation of compound NU227191 to CRBN protein pre-immobilized on AR2G sensors. Binding experiments and data fitting were performed as described above. FIG. 15C is BLI sensorgrams for the IDO1-NU227191-CRBN ternary complex. IDO1 protein was loaded onto NiNTA biosensors. IDO1 was pre-immobilized on NI NTA sensors, and binding of compound NU227191 preincubated with CRBN was monitored in the association step; next, the sensors were moved into reaction buffer in order monitor dissociation. As indicated in the legend, each trace corresponds to a different concentration of NU227191. Data sets fitted globally with a 1:1 kinetic model. No binding was detected between CRBN and IDO1 in the absence of NU227191 (trace “CRBN only”).
# (§4) FIGS. 16A-16C show mechanistic understanding of IDO1-PROTAC-induced IDO1 degradation. […] The equilibrium dissociation constant (Kd) was obtained by fitting the steady state data (Req as a function of compound concentration) with a 1:1 binding model. FIG. 16B is BLI sensorgrams showing association and dissociation of compound NU227199 to CRBN protein pre-immobilized on AR2G sensors. Binding experiments and data fitting were performed as described above. FIG. 16C is BLI sensorgrams for the IDO1-NU227199-CRBN ternary complex. IDO1 protein was loaded onto NiNTA biosensors. IDO1 was pre-immobilized on NI NTA sensors, and binding of compound NU227199 preincubated with CRBN was monitored in the association step; next, the sensors were moved into reaction buffer in order monitor dissociation. As indicated in the legend, each trace corresponds to a different concentration of NU227199. Data sets fitted globally with a 1:1 kinetic model. […]
# cereblon (CRBN) protein = biological target: T2, cereblon (CRBN) protein (Homo sapiens, UniProt Q96SW2); assay: BLI binary binding of IDO1-PROTAC to immobilized CRBN; details: CRBN amine coupled to AR2G sensors
# T2 construct: purchased Sino Biological
# Method: as §1, §2, §3, §4
# [2] = biological target: T3, 6×His tagged recombinant IDO1 protein (Homo sapiens, UniProt P14902); assay: BLI binary binding of IDO1-PROTAC to immobilized IDO1; details: IDO1 on Ni-NTA sensors, PBS+0.5% DMSO pH 7.4, 30° C
# T3 construct: purchased Active Motif 81031
# Method: as §1, §2, §3, §4
# IDO1 in GBM43 cells = biological target: T4, IDO1 in GBM43 cells (Homo sapiens, UniProt P14902); assay: PROTAC-induced IDO1 degradation in GBM43 cells by Western blot; type: cell-based; details: 24 h
# T4 construct: endogenous in cells; host or cells: GBM43 cells
# Method: (§5) FIGS. 20A-20E show biological activity of compounds NU227326 and NU227327.
# (§6) FIGS. 22A-22D show determination of IDO1 degrading potency of NU227326.
# (§7) Protein samples were prepared by lysing the cells in RIPA buffer (Sigma-Aldrich, Cat #R0278) supplemented with protease and phosphatase inhibitors on ice for 30 min. Cell lysates were clarified by centrifugation at 16,000×g for 15 min at 4° C. Equal amounts of proteins as quantified by bicinchoninic acid assay (Pierce) were separated on an SDS-polyacrylamide gel electrophoresis and proteins were electrophoretically transferred onto a polyvinylidene fluoride (PVDF) membrane using a Trans-Blot Turbo Transfer System (Bio-Rad, Hercules, CA, USA). The blotted membranes were blocked for 1 h at room temperature in blocking buffer containing 5% (w/v) nonfat dry milk in Tris-buffered saline and 0.1% Tween 20 (TBS-T) followed by incubating the membranes overnight at 4° C. with primary antibodies against a target protein diluted at a standardized concentration in blocking buffer. […] The protein bands were detected using an enhanced chemiluminescence reagent (SuperSignal West Femto Maximum Sensitivity substrate) and blots were visualized with Bio-Rad ImageLab software on a Bio-Rad […] MP imaging system. […]
# IDO1 in U87 cells = biological target: T5, IDO1 in U87 cells (Homo sapiens, UniProt P14902); assay: PROTAC-induced IDO1 degradation in U87 cells by Western blot; type: cell-based; details: 24 h
# T5 construct: endogenous in cells; host or cells: U87 cells, IDO1 induced with IFNγ
# Method: as §5, §6, §7
# kynurenine in U87 cells = assay: Kynurenine assay (Ehrlich's reagent) in U87 cells; type: cell-based; details: indicated doses of compound
# Method: as §5
# Kynurenine levels in cell culture supernatants were measured using Erhlich's reagent. Briefly, cell culture supernatants were incubated with a 10% final concentration of trichloroacetic acid in Eppendorf tubes for 20 min at 60° C. to release kynurenine from cells and to precipitate proteins. After 20 minutes, samples were centrifuged for 20 min at 2500×g and supernatants were mixed with 20 mg/mL 4-dimethylamino benzaldehyde in acetic acid (Sigma Aldrich) at a 1:1 ratio and absorbance was measured at 480 nm using a plate reader.
# [3] = levels of IDO1 quantified from Western blot
# T2 sequence (Q96SW2 whole entry): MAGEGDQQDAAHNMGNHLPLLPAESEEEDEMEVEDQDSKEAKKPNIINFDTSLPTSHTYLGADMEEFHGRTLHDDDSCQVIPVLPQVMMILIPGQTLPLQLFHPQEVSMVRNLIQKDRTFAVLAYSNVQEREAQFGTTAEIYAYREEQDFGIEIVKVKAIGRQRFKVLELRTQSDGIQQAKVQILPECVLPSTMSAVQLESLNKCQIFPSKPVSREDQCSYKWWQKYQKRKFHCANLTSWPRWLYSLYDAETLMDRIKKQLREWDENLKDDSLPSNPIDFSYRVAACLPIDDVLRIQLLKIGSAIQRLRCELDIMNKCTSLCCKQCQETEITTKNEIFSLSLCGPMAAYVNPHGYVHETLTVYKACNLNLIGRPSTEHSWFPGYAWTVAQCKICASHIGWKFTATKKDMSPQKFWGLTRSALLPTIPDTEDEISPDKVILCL
# T4 sequence (P14902 whole entry): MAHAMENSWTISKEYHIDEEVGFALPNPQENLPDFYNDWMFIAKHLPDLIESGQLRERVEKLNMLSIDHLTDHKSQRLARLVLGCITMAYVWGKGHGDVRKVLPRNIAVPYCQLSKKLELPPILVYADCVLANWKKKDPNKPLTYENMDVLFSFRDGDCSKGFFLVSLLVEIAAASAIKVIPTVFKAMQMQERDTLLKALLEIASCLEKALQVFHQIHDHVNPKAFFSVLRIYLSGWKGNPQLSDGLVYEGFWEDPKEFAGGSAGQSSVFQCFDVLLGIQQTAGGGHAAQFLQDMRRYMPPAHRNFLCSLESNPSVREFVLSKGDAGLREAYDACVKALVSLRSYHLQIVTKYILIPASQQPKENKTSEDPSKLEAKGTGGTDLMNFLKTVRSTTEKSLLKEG
# T1 sequence (P14902 whole entry): as above
# T1 sequence (Q96SW2 whole entry): as the sequence (Q96SW2 whole entry) above
# T3 sequence (P14902 whole entry): as the sequence (P14902 whole entry) above
# T5 sequence (P14902 whole entry): as above
Molecule,Kd [1],Kd (cereblon (CRBN) protein),Kd [2],IDO1 degradation by Western blotting (IDO1 in GBM43 cells; indicated concentrations),DC50 (IDO1 in GBM43 cells; [3]),IDO1 degradation by Western blotting (IDO1 in U87 cells; indicated concentrations),DC50 (IDO1 in U87 cells; [3]),concentration of kynurenine (kynurenine in U87 cells),IDO1-PROTAC-CRBN Ternary Kd [1]
"C[C@@H](C(=O)Nc1cccc(OC2CCN(C(=O)CN3CCC(N4CCN(c5ccc6c(c5)C(=O)N(C5CCC(=O)NC5=O)C6=O)CC4)CC3)CC2)c1)[C@H]1CC[C@@H](c2ccnc3ccc(F)cc32)CC1 (stereo partly drawn) [NU227326, (2R)-N-(3-((1-(2-(4-(4-(2-(2,6-dioxopiperidin-3-yl)-1,3-dioxoisoindolin-5-yl)piperazin-1-yl)piperidin-1l-yl)acetyl)piperidin-4-yl)oxy)phenyl)-2-((1s,4S)-4-(6-fluoroquinolin-4-yl)cyclohexyl)propanamide]",321 nM,380 nM,140 nM,potent and dose-dependent degradation of IDO1,20.3 nM,dose-dependent IDO1 degradation,10.4 nM,strong reduction of cellular kynurenine,
"(2R)-N-(4-((1-(1-(2-((2-(2,6-dioxopiperidin-3-yl)-1,3-dioxoisoindolin-5-yl)amino)ethoxy)ethyl)piperidine-4-carbonyl)piperidin-4-yl)oxy)phenyl)-2-((1s,4S)-4-(6-fluoroquinolin-4-yl)cyclohexyl)propanamide [NU227191]",,5100 nM,12000 nM,,,,,,could not obtain

# More lines, main results first:
Kd [1],Kd (cereblon (CRBN) protein),Kd [2],Molecule,IDO1 degradation by Western blotting (IDO1 in GBM43 cells; indicated concentrations),DC50 (IDO1 in GBM43 cells; [3]),IDO1 degradation by Western blotting (IDO1 in U87 cells; indicated concentrations),DC50 (IDO1 in U87 cells; [3]),concentration of kynurenine (kynurenine in U87 cells),IDO1-PROTAC-CRBN Ternary Kd [1]
128 nM,310 nM,430 nM,"C[C@@H](C(=O)Nc1ccc(Cl)c(OC2CCN(C(=O)CN3CCC(CN4CCN(c5ccc6c(c5)C(=O)N(C5CCC(=O)NC5=O)C6=O)CC4)CC3)CC2)c1)[C@H]1CC[C@@H](c2ccnc3ccc(F)cc32)CC1 (stereo partly drawn) [NU227164, (2R)-N-(4-chloro-3-((1-(2-(4-((4-(2-(2,6-dioxopiperidin-3-yl)-1,3-dioxoisoindolin-5-yl)piperazin-1-yl)methyl)piperidin-1-yl)acetyl)piperidin-4-yl)oxy)phenyl)-2-((1s,4,S)-4-(6-fluoroquinolin-4-yl)cyclohexyl)propanamide]",,,,,,
87 nM,190 nM,340 nM,"C[C@@H](C(=O)Nc1ccc(Cl)c(OC2CCN(C(=O)CN3CCC(N4CCN(c5ccc6c(c5)C(=O)N(C5CCC(=O)NC5=O)C6=O)CC4)CC3)CC2)c1)[C@H]1CC[C@@H](c2ccnc3ccc(F)cc32)CC1 (stereo partly drawn) [NU227168, (2R)-N-(4-chloro-3-((1-(2-(4-(4-(2-(2,6-dioxopiperidin-3-yl)-1,3-dioxoisoindolin-5-yl)piperazin-1-yl)piperidin-1-yl)acetyl)piperidin-4-yl)oxy)phenyl)-2-((1s,4S)-4-(6-fluoroquinolin-4-yl)cyclohexyl)propanamide]",,,,,,
689 nM,1600 nM,2100 nM,"C[C@@H](C(=O)Nc1ccc(Cl)c(OC2CCN(C(=O)C3CCN(C[C@H]4CC[C@H](Nc5ccc6c(c5)C(=O)N(C5CCC(=O)NC5=O)C6=O)CC4)CC3)CC2)c1)[C@H]1CC[C@@H](c2ccnc3ccc(F)cc32)CC1 (stereo partly drawn) [NU227199, (2R)-N-(4-chloro-3-((1-(1-(((1r,4r)-4-((2-(2,6-dioxopiperidin-3-yl)-1,3-dioxoisoindolin-5-yl)amino)cyclohexyl)methyl)piperidine-4-carbonyl)piperidin-4-yl)oxy)phenyl)-2-((1s,4S)-4-(6-fluoroquinolin-4-yl)cyclohexyl)propanamide]",,,,,,
997 nM,520 nM,370 nM,"C[C@@H](C(=O)Nc1cccc(OC2CCN(C(=O)CN3CCC(CN4CCN(c5ccc6c(c5)C(=O)N(C5CCC(=O)NC5=O)C6=O)CC4)CC3)CC2)c1)[C@H]1CC[C@@H](c2ccnc3ccc(F)cc32)CC1 (stereo partly drawn) [NU227327, (2R)-N-(3-((1-(2-(4-((4-(2-(2,6-dioxopiperidin-3-yl)-1,3-dioxoisoindolin-5-yl)piperazin-1-yl)methyl)piperidin-1-yl)acetyl)piperidin-4-yl)oxy)phenyl)-2-((1s,4S)-4-(6-fluoroquinolin-4-yl)cyclohexyl)propanamide]",,,,,strong reduction of cellular kynurenine,
